Reference: US7692030B2, “Conjugates of artemisinin-related endoperoxides and hydrazone derivatives for the treatment of cancer” (University of Washington, priority 2006, dated 2010)
Entries after “also recorded” stand apart in the source; their conditions may differ.

Tests used:
[1] = tested on: Molt-4 human leukemia cells; assay: Cell count of Molt-4 human leukemia cells over time; assay type: cell-based; conditions: FIG. 11; [ART-Phe-Sal]=10 mM, [DHA]=10 μM, [ART-Tf]=12 μM; cells counted at different times
Description: Molt-4-lymphoblastoid cells were purchased from the American Type Culture Collection (Rockville, Md.). They are acute lympoblastic leukemia cells from human peripheral blood. Cultures were maintained in RPMI-1640 (Gibco, Long Island, N.Y.) supplemented with 10% fetal bovine serum (Hyclone, New Haven, Conn.). Cells were cultured at 37° C. in 5% CO2/95% air and 100% humidity, and were split 1:2 at a concentration of approximately 1×10^6/mL. Approximate cell numbers before experiment were between 150×10^3 to 300×10^3 per mL.
FIG. 11 compares the effects of ART-Phe-Sal, DHA, and artemisinin-tagged holotransferrin (ART-Tf) on Molt-4 human leukemia cell.

[2] = tested on: DAOY medulloblastoma cells; assay: DAOY medulloblastoma cells, MTT assay and light microscopy; assay type: cell-based
Description: The compound ART-Phe-Sal was tested on DAOY medulloblastoma cells using the MTT assay. DAOY Medulloblastoma cells (5,000 cells/200 μL) was seeded on a 96 well plate and incubated for 24 h at 37° C. Cell culture medium was removed after 24 h and 150 μL of medium with treatment was added. Each experimental treatment had holo-Tf (20 μg/well). Treatment assay was viewed under light microscope after 24 h.
Treatment medium was removed after 48 h, and 100 μL of cell medium was added. MTT Reagent (10 μL, 12 mM) was added to each well. This solution was incubated at 37° C. for 4 h. Isopropanol (100 μL) was added to each well to lyse the cells, which were then incubated at 4° C. for 30 m. After incubation each well was plunged (3×200 μL) to ensure the cells were lysed. The incubated medium with MTT reagent was then centrifuged at 13,000 RPM in an eppendorph centrifuge for 3 minutes at room temperature. 100 μL of supernatant was read in a plate reader at λ=570 nm. FIG. 13 compares the effect of dihydroartemisinin (DHA) and ART-Phe-Sal on DAOY medulloblastoma cell line. The concentration of holo-Tf was 1.7 μM.

CC1CCC2C(C)C(OCc3ccc(C(=O)NN=Cc4ccccc4O)cc3)OC3OC4(C)CCC1C32OO4 (stereo not drawn) [ART-Phe-Sal, N′-(2-hydroxybenzylidene)-4-(dihydroxyartemisinin-methyl)-phenyl carbohydrazide]
effect on Molt-4 human leukemia cells (cell count, words) [1]: can effectively kill human leukemia cells; also recorded: more potent than either dihydroartemisinin (DHA) or artemisinin-tagged holotransferrin (ART-Tf) | activity against DAOY medulloblastoma cells ([2]; FIG. 13, MTT assay, 48 h treatment, holo-Tf 1.7 μM): active against DAOY medulloblastoma cells | cell shrinkage under light microscope ([2]; after 24 h treatment, each treatment had holo-Tf (20 μg/well)): Moderate cell shrinkage
